One assay relates to Kuramochi cells. Briefly: IncuCyte Kuramochi Assay (cell proliferation). Conditions: Kuramochi cells labeled with mApple-H2B, cell count, read-out: IncuCyte - Kuramochi RB-WT: IC50. It is filed as cell-based. The method in brief: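 GI50 came from dose-response fits of cell-count fold change between 0 and 72 h, normalized to DMSO controls. Counts were fluorescent nuclei from live-cell images over a 10-point, ½ log series starting at 20 μM.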

The target of assay [1] is T1, CDK2/Cyclin E1 (Homo sapiens, UniProt P24941).
T1 construct: purchased 14-475
Briefly: Caliper Assay (LabChip EZ Reader mobility shift assay), inhibition of CDK2/Cyclin E1 activity. Conditions: 2.5 nM CDK2/Cyclin E1(14-475), 100 μM ATP, 30 min preincubation; read-out: Caliper Assay (CDK2/CCNE1): IC50. It is filed as biochemical. An outline of the steps: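 Compounds were preincubated 30 min with CDK2/Cyclin E1(14-475), then run for 100 min with 2.5 nM enzyme, 100 μM ATP and 1.5 μM 5-FAM-QSPKKG peptide in HEPES pH 7.5 (final). Reactions were EDTA-stopped and substrate-to-product conversion read by mobility shift. IC50 came from a four-parameter fit.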

The target of assay [2] is T1, CDK2/Cyclin E1. Nature of the assay: ADPGLO (CDK2/E1-37 C), ADP-Glo Luminescent Kinase Assay. It is filed as biochemical. Conditions: 0.18 nM CDK2/Cyclin E1, 100 μM ATP, Histone H1, 37° C. As to the method:
Inhibition of CDK2/Cyclin E1 activity by the presence of small molecules was evaluated using ADP-Glo Luminescent Kinase Assay (Promega). Activated CDK2/Cyclin E1 was incubated with its substrate Histone H1 (SignalChem H10-54N) in the kinase reaction buffer (100 μM ATP, 50 mM HEPES pH 7.5, 10 mM MgCl2, 1 mM EDTA, 2 mM DTT, 0.01% Brij35, 0.5 mg/mL BSA). Luminescence was recorded with an Envision plate reader (PerkinElmer).
Dose titrations of inhibitors in 100% DMSO were combined with 0.36 nM CDK2/Cyclin E1 in reaction buffer. The mixtures were incubated for 60 minutes at 37° C. before the addition of ATP and Histone H1 substrate to initiate the kinase reaction. The final conditions were 0.18 nM CDK2/Cyclin E1, 100 μM ATP, and 1.5 μM Histone H1. The reactions were incubated at 37° C. for 90 minutes before being stopped with the addition of ADP-Glo reagent. This mixture was incubated at room temperature for 60 minutes before Kinase Detection Solution is added to generate luminescence. The stopped reactions were analyzed on an Envision plate reader. The conversion ratios were normalized to yield % activity, plotted against compound concentration, and fit to a four-parameter equation to determine the IC50 for each compound.
For orientation: ADP-Glo turns the ADP formed in a reaction into a luminescent signal.

Like-named read-outs stand apart in the source and are kept apart here.

As to `CC(c1nc(C2CN(C(=O)c3cncs3)CC23CN(C(=O)[C@H]2CC2(C)C)C3)no1)n1ccc(C2CCCC2)n1` (single isomer, unassigned) [I-36 2nd], the IC50 is above 10 µM with Kuramochi cells (72 hours), 1 to 10 µM on CDK2/Cyclin E1 [1] and above 10 µM on CDK2/Cyclin E1 [2].
Consider `CC(c1nc(C2CN(C(=O)c3cncs3)CC23CN(C(=O)[C@H]2CC2(C)C)C3)no1)n1ccc(C2CCCC2)n1` (single isomer, unassigned) [I-36 3rd], for which the results for the IC50 in the assay with Kuramochi cells (72 hours), at CDK2/Cyclin E1 [1] and against CDK2/Cyclin E1 [2] were above 10 µM, 0.01 to 0.1 µM and at most 0.5 µM, respectively.
In the case of `CC1(C)C[C@@H]1C(=O)N1CC2(CN(C(=O)c3cnccn3)CC2c2nnc(C(F)(F)c3ccc(Cl)c(Cl)c3)o2)C1` (single isomer, unassigned) [I-45 2nd], the figures for the IC50 in the assay with Kuramochi cells (72 hours), at CDK2/Cyclin E1 [1] and against CDK2/Cyclin E1 [2] were above 10 µM, 0.1 to 1 µM and above 10 µM, respectively.
Turning to `CC1(C)C[C@@H]1C(=O)N1CC2(CN(C(=O)c3cnn(Cc4ccccc4)c3)C[C@H]2c2nnc(Cc3ccc(Cl)c(Cl)c3)o2)C1` [I-15, (1-benzyl-1H-pyrazol-4-yl)((S)-8-(5-(3,4-dichlorobenzyl)-1,3,4-oxadiazol-2-yl)-2-((S)-2,2-dimethylcyclopropane-1-carbonyl)-2,6-diazaspiro[3.4]octan-6-yl)methanone], the IC50 lay in the range of 5 to 10 µM in the assay on Kuramochi cells (72 h), 0.01 to 0.1 µM at CDK2/Cyclin E1 [1] and 0.5 to 5 µM against CDK2/Cyclin E1 [2].
As for `CC1(C)C[C@@H]1C(=O)N1CC2(CN(C(=O)c3cncs3)CC2c2nnc(C(F)(F)c3ccc(Cl)c(Cl)c3)o2)C1` (stereo partly drawn) [I-32], the IC50 in the assay on Kuramochi cells (72 h) was above 10 µM; at CDK2/Cyclin E1 [1] it was 0.1 to 1 µM; on CDK2/Cyclin E1 [2], 0.5 to 5 µM.
Regarding `COc1ccc(COc2cncc(C(=O)N3CC(c4nnc(C(F)(F)c5ccc(Cl)c(Cl)c5)o4)C4(C3)CN(C(=O)[C@H]3CC3(F)F)C4)n2)cc1` (stereo partly drawn) [I-125], the IC50 was above 10 µM in the assay on Kuramochi cells (72 h), above 100 µM on CDK2/Cyclin E1 [1] and above 100 µM against CDK2/Cyclin E1 [2].
On to `CC(c1nc(C2CN(C(=O)c3cnn(Cc4ccc(C(=O)O)nc4)c3)CC23CN(C(=O)[C@H]2CC2(C)C)C3)no1)n1ccc(C2CCCC2)n1` (stereo partly drawn) [I-126], for which the IC50 in the assay with Kuramochi cells (72 h) is above 10 µM; on CDK2/Cyclin E1 [1], 0.1 to 1 µM; at CDK2/Cyclin E1 [2], above 10 µM.
Take `CC(c1nc(C2CN(C(=O)c3cnn(Cc4ccc(C(=O)O)cc4)c3)CC23CN(C(=O)[C@H]2CC2(C)C)C3)no1)n1ccc(C2CCCC2)n1` (stereo partly drawn) [I-127]: the figures for the IC50 with Kuramochi cells (72 h), at CDK2/Cyclin E1 [1] and at CDK2/Cyclin E1 [2] were above 10 µM, 0.1 to 1 µM and 5 to 10 µM, respectively.
On to `CC(c1nc(C2CN(C(=O)c3nccnc3O)CC23CN(C(=O)[C@H]2CC2(F)F)C3)no1)n1ccc(C2CCCC2)n1` (stereo partly drawn) [I-129], for which the IC50 is above 10 µM in the assay on Kuramochi cells (72 h), above 100 µM on CDK2/Cyclin E1 [1] and above 10 µM against CDK2/Cyclin E1 [2].
Consider `CC(c1nc(C2CN(C(=O)c3cnn(Cc4cc(F)c(C(=O)O)c(F)c4)c3)CC23CN(C(=O)[C@H]2CC2(C)C)C3)no1)n1ccc(C2CCCC2)n1` (stereo partly drawn) [I-130, 4-((4-(8-(5-(1-(3-cyclopentyl-1H-pyrazol-1-yl)ethyl)-1,2,4-oxadiazol-3-yl)-2-((S)-2,2-dimethylcyclopropane-1-carbonyl)-2,6-diazaspiro[3.4]octane-6-carbonyl)-1H-pyrazol-1-yl)methyl)-2,6-difluorobenzoic acid], for which the IC50 in the assay with Kuramochi cells (72 h) was above 10 µM; on CDK2/Cyclin E1 [1], 0.01 to 0.1 µM; against CDK2/Cyclin E1 [2], 0.5 to 5 µM.
With `CC(c1nc(C2CN(C(=O)c3cnn(Cc4cccc(C(=O)O)c4)c3)CC23CN(C(=O)[C@H]2CC2(C)C)C3)no1)n1ccc(C2CCCC2)n1` (stereo partly drawn) [I-131], the IC50 was above 10 µM with Kuramochi cells (72 h), at most 0.01 µM on CDK2/Cyclin E1 [1] and 0.5 to 5 µM against CDK2/Cyclin E1 [2].
In the case of `O=C(c1cnc(O)cn1)N1CC(c2nnc(C(F)(F)c3ccc(C4CCOCC4)cc3)o2)C2(C1)CN(C(=O)[C@H]1CC1(F)F)C2` (stereo partly drawn) [I-132, (8-(5-(difluoro(4-(tetrahydro-2H-pyran-4-yl)phenyl)methyl)-1,3,4-oxadiazol-2-yl)-2-((R)-2,2-difluorocyclopropane-1-carbonyl)-2,6-diazaspiro[3.4]octan-6-yl)(5-hydroxypyrazin-2-yl)methanone], the IC50 in the assay on Kuramochi cells (72 h) was above 10 µM; on CDK2/Cyclin E1 [1], 1 to 10 µM; on CDK2/Cyclin E1 [2], above 10 µM.
As for `CC(c1nc(C2CN(C(=O)c3cnn(Cc4ccccc4C(=O)O)c3)CC23CN(C(=O)C2(C(F)(F)F)CC2)C3)no1)n1ccc(C2(C(F)(F)F)CC2)n1` (stereo not drawn) [I-220, 2-((4-(2-(1-(trifluoromethyl)cyclopropane-1-carbonyl)-8-(5-(1-(3-(1-(trifluoromethyl)cyclopropyl)-1H-pyrazol-1-yl)ethyl)-1,2,4-oxadiazol-3-yl)-2,6-diazaspiro[3.4]octane-6-carbonyl)-1H-pyrazol-1-yl)methyl)benzoic acid], the IC50 in the assay on Kuramochi cells (72 h) was above 10 µM; against CDK2/Cyclin E1 [2], 0.5 to 5 µM.
Consider `CC1(C)C[C@@H]1C(=O)N1CC2(CN(C(=O)c3cncs3)CC2c2nc3ccc(Oc4ccccc4-c4cncs4)cc3o2)C1` (stereo partly drawn) [I-221, (2-((S)-2,2-dimethylcyclopropane-1-carbonyl)-8-(6-(2-(thiazol-5-yl)phenoxy)benzo[d]oxazol-2-yl)-2,6-diazaspiro[3.4]octan-6-yl)(thiazol-5-yl)methanone], for which the IC50 fell in the range of 5 to 10 µM with Kuramochi cells (72 h) and 0.5 to 5 µM against CDK2/Cyclin E1 [2].
For `COC(=O)c1ccccc1Cn1cc(C(=O)N2CC(c3noc(C(C)n4ccc(C5(C(F)(F)F)CC5)n4)n3)C3(C2)CN(C(=O)C2(C(F)(F)F)CC2)C3)cn1` (stereo not drawn) [I-222], in that order: above 10 µM and above 10 µM.
`CC(c1nc(C2CN(C(=O)c3cnn(Cc4ccc(C(F)(F)F)cc4)c3)CC23CN(C(=O)C2(C(F)(F)F)CC2)C3)no1)n1ccc(C2(C(F)(F)F)CC2)n1` (stereo not drawn) [I-223, (1-(4-(trifluoromethyl)benzyl)-1H-pyrazol-4-yl)(2-(1-(trifluoromethyl)cyclopropane-1-carbonyl)-8-(5-(1-(3-(1-(trifluoromethyl)cyclopropyl)-1H-pyrazol-1-yl)ethyl)-1,2,4-oxadiazol-3-yl)-2,6-diazaspiro[3.4]octan-6-yl)methanone]: the values for the IC50 in the assay with Kuramochi cells (72 h) and on CDK2/Cyclin E1 [2] were 5 to 10 µM and above 10 µM, respectively.
Turning to `Cc1nc(C(=O)N2C[C@H](c3noc(C(C)n4ccc(C5CCOCC5)n4)n3)C3(C2)CN(C(=O)C2(C(F)(F)F)CC2)C3)cnc1O` (stereo partly drawn) [I-224, (5-hydroxy-6-methylpyrazin-2-yl)((8R)-8-(5-(1-(3-(tetrahydro-2H-pyran-4-yl)-1H-pyrazol-1-yl)ethyl)-1,2,4-oxadiazol-3-yl)-2-(1-(trifluoromethyl)cyclopropanecarbonyl)-2,6-diazaspiro[3.4]octan-6-yl)methanone], the IC50 in the assay with Kuramochi cells (72 h) and against CDK2/Cyclin E1 [2] was above 10 µM throughout.
Consider `CC(c1nc(C2CN(C(=O)c3cnc(O)c(C(F)(F)F)n3)CC23CN(C(=O)C2(C(F)(F)F)CC2)C3)no1)n1ccc(C2CCOCC2)n1` (stereo not drawn) [I-225, (5-Hydroxy-6-(trifluoromethyl)pyrazin-2-yl)(8-(5-(1-(3-(tetrahydro-2H-pyran-4-yl)-1H-pyrazol-1-yl)ethyl)-1,2,4-oxadiazol-3-yl)-2-(1-(trifluoromethyl)cyclopropane-1-carbonyl)-2,6-diazaspiro[3.4]octan-6-yl)methanone], for which the IC50 with Kuramochi cells (72 h) is above 10 µM; on CDK2/Cyclin E1 [2], 5 to 10 µM.

These data come from patent publication US20260151375A1, “CDK2 INHIBITORS AND METHODS OF USING THE SAME” (Cedilla Therapeutics, Inc., priority 2022, published 2026).
